Laboratory results from patent US20250073248A1, “BIORESORBABLE CATIONIC STEROIDAL ANTIMICROBIAL COMPOUNDS WITH GLYCERIDE LINKAGES” (BRIGHAM YOUNG UNIVERSITY, priority 2023, published 2025).
Values after ≈ are worked out from the molar mass of the structure shown.

System: methicillin-resistant Staphylococcus aureus (MRSA)
Assay: MIC and MBC, broth microdilution, MRSA (Table 1)
Format: cell-based
Settings: Staphylococcus aureus
Source text: To investigate the antimicrobial impact of structural variance in the novel bioresorbable CSA compounds disclosed herein,Pseudomonas aeruginosa 01 (PA01), methicillin-resistant Staphylococcus aureus (MRSA), and Candida albicans (CA) were selected, representing Gram-negative bacterial, Gram-positive bacterial, and fungal pathogens of high or critical priority on the world health organization's priority lists for bacteria and fungi. Earlier applications of CSA compounds have focused on preventing medical device infections, and all three strains are commonly found in colonized implants, making efficacy against these pathogens an important indicator of future applicability.
All compounds were screened against these pathogens to determine their minimum inhibitory concentration (MIC), minimum bactericidal concentration (MBC), and minimum fungicidal concentration (MFC) using a broth microdilution method. […] Of these three, only CSA-4110 was similarly active against PA01and CA, inhibiting growth at 8 μg/mL.

## CCCCCCCCCC(=O)OCC(O)COC(=O)CC[C@@H](C)[C@H]1CC[C@H]2[C@@H]3[C@H](OC(=O)CCN)C[C@@H]4C[C@H](OC(=O)CCN)CC[C@]4(C)[C@H]3C[C@H](OC(=O)CCN)[C@]12C (some centres unmarked) [CSA-4110]
MBC, value in parentheses, kills at least 99.9%
  MBC: 8 mg/L (≈ 9.41 µM)
First value of cell
  MIC: ≤ 8 mg/L
